BigSolDB 2.1

NCCCCCCN
solubility (mole fraction)
Details | in 1,4-dioxane | in cyclohexane | in isobutanol | in n-butanol | in n-hexane | in n-propanol | in toluene
278.15 K | – | 0.0071 | 0.193 | 0.35 | 0.0103 | 0.315 | 0.132
283.15 K | 0.135 | 0.0092 | 0.236 | 0.389 | 0.0149 | 0.354 | 0.161
288.15 K | 0.194 | 0.0126 | 0.288 | 0.448 | 0.018 | 0.391 | 0.209
293.15 K | 0.267 | 0.0187 | 0.351 | 0.508 | 0.0268 | 0.431 | 0.259
298.15 K | 0.348 | 0.0309 | 0.427 | 0.584 | 0.0449 | 0.485 | 0.334
303.15 K | 0.467 | 0.053 | 0.521 | 0.652 | 0.0729 | 0.552 | 0.434
